Test results from patent publication US9024027B2, “Derivatives of 1-phenyl-2-pyridinyl alkyl alcohols as phosphodiesterase inhibitors” (Chiesi Farmaceutici S.p.A., priority 2011, dated 2015).
pIC50: −log10 of the molar value. Where a name gives a salt, the structure may show the parent alone.

Tested on: LPS-induced TNF-α release in peripheral blood mononuclear cells (PBMCs)
Test: In vitro determination of PDE4 inhibitory activity in the PBMCs assay (LPS-induced TNF-α release)
Assay type: cell-based
Conditions: PBMC; human PBMCs, LPS 3 ng/ml, 18 hours; read-out: PDE4 inhibition (IC50, 50% inhibition of LPS-induced TNF-α release)
Procedure: The assay, which is based on the known inhibitory activity exerted by PDE4 inhibitors on the lipopolyshaccarides (LPS)-induced tumour necrosis factor-alpha (TNF-α release in peripheral blood mononuclear cells (PBMCs), was performed according to a method previously described (Hatzelmann A et al., J. Pharmacol. Exp. Ther., 2001; 297:267-279; and Draheim R et al., J. Pharmacol. Exp. Ther., 2004; 308:555-563, both of which are incorporated herein by reference in their entireties. Cryopreserved human PBMCs, (100 μl/well) were incubated in 96-well plates (10^5 cells/well), for 30 minutes, in the presence or absence (50 microl) of the test compounds whose concentrations ranged from 10^−12 M to 10^−6 M or from 10^−13 M to 10^−7 M. Subsequently, LPS (3 ng/ml) was added. After 18 hours of incubation at 37° C. in a humidified incubator under an atmosphere of 95% air and 5% CO2, culture medium was collected and TNF-α measured by ELISA.
The results of the tested compounds, representatives of the invention, expressed as mean±95% confidence limits of the molar concentration of the test compound producing 50% inhibition of LPS-induced TNF-α release (IC50) are shown in the following Table: […]

Q: How did the pIC50 turn out when `Cn1cnc2c1c(=O)n(CC(=O)O[C@@H](Cc1c(Cl)c[n+]([O-])cc1Cl)c1ccc(OC(F)F)c(OCC3CC3)c1)c(=O)n2C` [Compound 20] was run?
A: > 9.00

Q: How did the pIC50 turn out when `O=C(CN1C(=O)c2cc(Cl)c(Cl)cc2C1=O)O[C@@H](Cc1c(Cl)c[n+]([O-])cc1Cl)c1ccc(OC(F)F)c(OCC2CC2)c1` [Compound 19] was run?
A: > 9.00

Q: How did the pIC50 turn out when `CS(=O)(=O)Nc1ccc2c(ccn2CC(=O)O[C@@H](Cc2c(Cl)c[n+]([O-])cc2Cl)c2ccc(OC(F)F)c(OCC3CC3)c2)c1` [Compound 76, (S)-3,5-dichloro-4-(2-(3-(cyclopropylmethoxy)-4-(difluoromethoxy)phenyl)-2-(2-(5-(methylsulfonamido)-1H-indol-1-yl)acetoxy)-ethyl)pyridine 1-oxide] was run?
A: > 9.00

Q: How did the pIC50 turn out when `COc1ccc2c(c1)CC(=O)N2CC(=O)O[C@@H](Cc1c(Cl)c[n+]([O-])cc1Cl)c1ccc(OC(F)F)c(OCC2CC2)c1` [Compound 117, (S)-3,5-dichloro-4-(2-(3-(cyclopropylmethoxy)-4-(difluoromethoxy)phenyl)-2-(2-(5-methoxy-2-oxoindolin-1-yl)acetoxy)-ethyl)pyridine 1-oxide] was run?
A: > 9.00

Q: How did the pIC50 turn out when `CS(=O)(=O)Nc1ccc2c(c1)C(=O)N(CC(=O)O[C@@H](Cc1c(Cl)c[n+]([O-])cc1Cl)c1ccc(OC(F)F)c(OCC3CC3)c1)C2=O` [Compound 167, (S)-3,5-dichloro-4-(2-(3-(cyclopropylmethoxy)-4-(difluoromethoxy)phenyl)-2-(2-(5-(methylsulfonamido)-1,3-dioxoisoindolin-2-yl)acetoxy)ethyl)pyridine 1-oxide] was run?
A: > 9.00

Q: With `CC(C(=O)OC(Cc1c(Cl)c[n+]([O-])cc1Cl)c1ccc(OC(F)F)c(OCC2CC2)c1)N1C(=O)c2ccccc2C1=O` (stereo not shown) [Compound 18] as the compound, how does the pIC50 read?
A: > 9.00

Q: How did the pIC50 turn out when `CS(=O)(=O)Nc1ccc2c(c1)CC(=O)N2CC(=O)O[C@@H](Cc1c(Cl)c[n+]([O-])cc1Cl)c1ccc(OC(F)F)c(OCC2CC2)c1` [Compound 112, (S)-3,5-dichloro-4-(2-(3-(cyclopropylmethoxy)-4-(difluoromethoxy)phenyl)-2-(2-(5-(methylsulfonamido)-2-oxoindolin-1-yl)acetoxy)ethyl)pyridine 1-oxide] was run?
A: > 9.00

Q: `O=C(CN1C(=O)c2ccccc2S1(=O)=O)O[C@@H](Cc1c(Cl)c[n+]([O-])cc1Cl)c1ccc(OC(F)F)c(OCC2CC2)c1` [Compound 102, (S)-3,5-dichloro-4-(2-(3-(cyclopropylmethoxy)-4-(difluoromethoxy)phenyl)-2-(2-(1,1-dioxido-3-oxobenzo[d]isothiazol-2(3H)-yl)acetoxy)ethyl)pyridine 1-oxide] was tested. Which pIC50 did it give?
A: > 9.00

Q: With `CSCCC(C(=O)OC(Cc1c(Cl)c[n+]([O-])cc1Cl)c1ccc(OC(F)F)c(OCC2CC2)c1)N1C(=O)c2ccccc2C1=O` (stereo not shown) [Compound 15] as the compound, how does the pIC50 read?
A: > 9.00

Q: `O=C(Cn1c(=O)c2ccccc2c(=O)n1CCN1CCOCC1)O[C@@H](Cc1c(Cl)c[n+]([O-])cc1Cl)c1ccc(OC(F)F)c(OCC2CC2)c1` [Compound 40] was tested. Which pIC50 did it give?
A: 8.00 to 9.00

Q: With `CS(=O)(=O)N(Cc1cccnc1)c1ccc2c(c1)C(=O)N(CC(=O)O[C@@H](Cc1c(Cl)c[n+]([O-])cc1Cl)c1ccc(OC(F)F)c(OCC3CC3)c1)C2=O` [Compound 186] as the compound, how does the pIC50 read?
A: > 9.00

Q: `COc1cc2c(cc1OC)C(=O)N(CC(=O)O[C@@H](Cc1c(Cl)c[n+]([O-])cc1Cl)c1ccc(OC(F)F)c(OCC3CC3)c1)C2=O` [Compound 156, (S)-3,5-dichloro-4-(2-(3-(cyclopropylmethoxy)-4-(difluoromethoxy)phenyl)-2-(2-(5,6-dimethoxy-1,3-dioxoisoindolin-2-yl)acetoxy)ethyl)pyridine 1-oxide] was tested. Which pIC50 did it give?
A: > 9.00

Q: `COc1ccc2c(c1)C(=O)C(=O)N2CC(=O)O[C@@H](Cc1c(Cl)c[n+]([O-])cc1Cl)c1ccc(OC(F)F)c(OCC2CC2)c1` [Compound 57, (S)-3,5-dichloro-4-(2-(3-(cyclopropylmethoxy)-4-(difluoromethoxy)phenyl)-2-(2-(5-methoxy-2,3-dioxoindolin-1-yl)acetoxy)ethyl)-pyridine 1-oxide] was tested. Which pIC50 did it give?
A: > 9.00

Q: `O=C(CN1C(=O)C(=O)c2ccc(N3CCOCC3)cc21)O[C@@H](Cc1c(Cl)c[n+]([O-])cc1Cl)c1ccc(OC(F)F)c(OCC2CC2)c1` [Compound 142, (S)-3,5-dichloro-4-(2-(3-(cyclopropylmethoxy)-4-(difluoromethoxy)phenyl)-2-(2-(6-morpholino-2,3-dioxoindolin-1-yl)acetoxy)ethyl)pyridine 1-oxide] was tested. Which pIC50 did it give?
A: 8.00 to 9.00

Q: How did the pIC50 turn out when `COCC(=O)Nc1cccc2c1C(=O)N(CC(=O)O[C@@H](Cc1c(Cl)c[n+]([O-])cc1Cl)c1ccc(OC(F)F)c(OCC3CC3)c1)C2=O` [Compound 173, (S)-3,5-dichloro-4-(2-(3-(cyclopropylmethoxy)-4-(difluoromethoxy)phenyl)-2-(2-(4-(2-methoxyacetamido)-1,3-dioxoisoindolin-2-yl)acetoxy)ethyl)pyridine 1-oxide] was run?
A: > 9.00

Q: With `CC(=O)N1CCN(CCN(c2ccc3c(c2)C(=O)N(CC(=O)O[C@@H](Cc2c(Cl)c[n+]([O-])cc2Cl)c2ccc(OC(F)F)c(OCC4CC4)c2)C3=O)S(C)(=O)=O)CC1` [Compound 214] as the compound, how does the pIC50 read?
A: > 9.00

Q: How did the pIC50 turn out when `CS(=O)(=O)Nc1ccc2c(c1)CCN2CC(=O)O[C@@H](Cc1c(Cl)c[n+]([O-])cc1Cl)c1ccc(OC(F)F)c(OCC2CC2)c1` [Compound 131, (S)-3,5-dichloro-4-(2-(3-(cyclopropylmethoxy)-4-(difluoromethoxy)phenyl)-2-(2-(5-(methylsulfonamido)indolin-1-yl)acetoxy)-ethyl)pyridine 1-oxide] was run?
A: 8.00 to 9.00

Q: With `O=C(Cn1c(=O)n(CCN2CCOCC2)c(=O)c2ccccc21)O[C@@H](Cc1c(Cl)c[n+]([O-])cc1Cl)c1ccc(OC(F)F)c(OCC2CC2)c1` [Compound 38] as the compound, how does the pIC50 read?
A: > 9.00

Q: With `O=C(Cn1c(=O)[nH]c2ccccc2c1=O)O[C@@H](Cc1c(Cl)c[n+]([O-])cc1Cl)c1ccc(OC(F)F)c(OCC2CC2)c1` [Compound 30] as the compound, how does the pIC50 read?
A: > 9.00

Q: How did the pIC50 turn out when `O=C(CN1C(=O)c2ccccc2C1=O)O[C@@H](Cc1c(Cl)c[n+]([O-])cc1Cl)c1ccc(OC(F)F)c(OC2CCOC2)c1` (stereo partly drawn) [Compound 261, 3,5-dichloro-4-((2S)-2-(4-(difluoromethoxy)-3-(tetrahydrofuran-3-yloxy)phenyl)-2-(2-(1,3-dioxoisoindolin-2-yl)acetoxy)-ethyl)pyridine 1-oxide] was run?
A: > 9.00

Q: How did the pIC50 turn out when `CS(=O)(=O)N(CCN1CCOCC1)c1cccc2c1C(=O)N(CC(=O)O[C@@H](Cc1c(Cl)c[n+]([O-])cc1Cl)c1ccc(OC(F)F)c(OCC3CC3)c1)C2=O` [Compound 176, (S)-3,5-dichloro-4-(2-(3-(cyclopropylmethoxy)-4-(difluoromethoxy)phenyl)-2-(2-(4-(N-(2-morpholinoethyl)methylsulfonamido)-1,3-dioxoisoindolin-2-yl)acetoxy)ethyl)pyridine 1-oxide 2,2,2-trifluoroacetic acid salt] was run?
A: 8.00 to 9.00

Q: With `O=C(Cn1c(=O)c(=O)n(CCN2CCOCC2)c2ccccc21)O[C@@H](Cc1c(Cl)c[n+]([O-])cc1Cl)c1ccc(OC(F)F)c(OCC2CC2)c1` [Compound 37, (S)-3,5-dichloro-4-(2-(3-(cyclopropylmethoxy)-4-(difluoromethoxy)phenyl)-2-(2-(4-(2-morpholinoethyl)-2,3-dioxo-3,4-dihydroquinoxalin-1(2H)-yl)acetoxy)ethyl)pyridine 1-oxide] as the compound, how does the pIC50 read?
A: > 9.00

Q: `CS(=O)(=O)Nc1ccc2c(c1)C(=O)N(CC(=O)O[C@@H](Cc1c(Cl)c[n+]([O-])cc1Cl)c1ccc(OC(F)F)c(OCC3CC3)c1)C2` [Compound 10, (S)-3,5-dichloro-4-(2-(3-(cyclopropylmethoxy)-4-(difluoromethoxy)phenyl)-2-(2-(6-(methylsulfonamido)-1-oxoisoindolin-2-yl)acetoxy)ethyl)pyridine 1-oxide] was tested. Which pIC50 did it give?
A: 8.00 to 9.00

Q: How did the pIC50 turn out when `Cc1noc(C)c1CN(c1ccc2c(c1)C(=O)N(CC(=O)O[C@@H](Cc1c(Cl)c[n+]([O-])cc1Cl)c1ccc(OC(F)F)c(OCC3CC3)c1)C2=O)S(C)(=O)=O` [Compound 191] was run?
A: > 9.00

Q: With `O=C(Cn1cnc2ccccc21)O[C@@H](Cc1c(Cl)c[n+]([O-])cc1Cl)c1ccc(OC(F)F)c(OCC2CC2)c1` [Compound 22] as the compound, how does the pIC50 read?
A: 8.00 to 9.00

Q: `COc1ccc2c(c1)N(CC(=O)O[C@@H](Cc1c(Cl)c[n+]([O-])cc1Cl)c1ccc(OC(F)F)c(OCC3CC3)c1)C(=O)C2=O` [Compound 64, (S)-3,5-dichloro-4-(2-(3-(cyclopropylmethoxy)-4-(difluoromethoxy)phenyl)-2-(2-(6-methoxy-2,3-dioxoindolin-1-yl)acetoxy)ethyl)-pyridine 1-oxide] was tested. Which pIC50 did it give?
A: > 9.00

Q: `CS(=O)(=O)N(CCN1CCOCC1)Cc1ccc2c(c1)C(=O)N(CC(=O)O[C@@H](Cc1c(Cl)c[n+]([O-])cc1Cl)c1ccc(OC(F)F)c(OCC3CC3)c1)C2=O` [Compound 258, (S)-3,5-dichloro-4-(2-(3-(cyclopropylmethoxy)-4-(difluoromethoxy)phenyl)-2-(2-(5-((N-(2-morpholinoethyl)methylsulfonamido)methyl)-1,3-dioxoisoindolin-2-yl)acetoxy)ethyl)pyridine 1-oxide] was tested. Which pIC50 did it give?
A: > 9.00

Q: `Nc1cccc2c1C(=O)N(CC(=O)O[C@@H](Cc1c(Cl)c[n+]([O-])cc1Cl)c1ccc(OC(F)F)c(OCC3CC3)c1)C2=O` [Compound 12, (S)-4-(2-(2-(4-amino-1,3-dioxoisoindolin-2-yl)acetoxy)-2-(3-(cyclopropylmethoxy)-4-(difluoromethoxy)phenyl)ethyl)-3,5-dichloropyridine 1-oxide] was tested. Which pIC50 did it give?
A: > 9.00
